Nine substances from patent US12209142B2, “SARS-CoV-2 epitope-targeted peptide immunostimulants” (Institute for Systems Biology, priority 2020, dated 2025) can be followed below.

For assay [1], the system named is K. pneumoniae cells (strain BAA 1705). Briefly: Gentamicin protection assay: phagocytosis and opsonophagocytic killing (OPK) by macrophages. The class given is cell-based, Klebsiella pneumoniae. The following applies: AR-PCC 5 μM, 1 h. The method, then:
FIGS. 7A and 7B show a gentamicin protection assay that evaluates EPI-driven phagocytosis and opsonophagocytic killing (OPK) of K. pneumoniae cells by murine bone-marrow-derived macrophages. FIG. 7A is a flow diagram depicting the assay used to evaluate EPI-driven opsonophagocytic killing (OPK) of K. pneumoniae cells. Briefly, K. pneumoniae cells (strain BAA 1705) opsonized by EPIs (AR-PCCs) and anti-DNP antibodies were incubated with macrophages for 1 or 24 h. Macrophages were lysed, and the lysate was plated to obtain bacterial colonies that were subsequently counted. FIG. 7B is a plot of colony counts for various samples subjected to the OPK assay. […] All EPIs (AR-PCCs) were used at a 5 μM concentration, measurements were conducted in triplicate, and error bars reflect standard deviations. cy(LLFFA) is SEQ ID NO:11.
It also tested whether DNP-conjugated EPIs could promote the opsonophagocytic killing (OPK) of K. pneumoniae by macrophages. This was tested by using an OPK assay. Briefly, K. pneumoniae cells were treated with EPI and then anti-DNP antibody before being exposed to macrophages for either 6 or 24 hours. During this incubation period, macrophages that recognize K. pneumoniae cells will phagocytose them, and phagocytosed bacteria will remain viable for up to 6 hours, but within 24 hours are rendered inviable by OPK. Thus, macrophages were isolated after 6 and 24 hours of incubation with K. pneumoniae, lysed them, and plated and grew the lysate, which yielded bacterial colonies that reflect the phagocytosis (at 6 hrs) or OPK (at 24 hrs) of bacteria.
Given that cy(LLFFF)-DNP (SEQ ID NO:5) recruits antibodies to K. pneumoniae surfaces, it was expected that K. pneumoniae opsonized in this manner would be more susceptible to phagocytosis by macrophages. AR-PCC-driven phagocytosis and OPK were quantified by a gentamicin protection assay, as depicted in FIG. 7A. For this assay, K. pneumoniae cells (strain BAA 1705) were treated with cy(LLFFF)-DNP (SEQ ID NO:5), opsonized by anti-DNP antibodies, and then incubated with murine bone-marrow-derived macrophages (BMDMs). BMDMs were subsequently exposed to a solution containing gentamicin, to which K. pneumoniae strain BAA 1705 is susceptible, to kill any extracellular bacteria. Phagocytosed bacteria remain viable inside BMDMs for at least 1 h, yet are rendered inviable after 24 h by OPK (FIG. 13). Macrophages harvested at 1 h and 24 h were lysed and plated to generate bacterial colonies, which were enumerated to quantify phagocytosis and OPK.
Opsonophagocytic killing (OPK) assays. Klebsiella pneumoniae BAA1705 was treated with DNP-PCCs followed by incubation with anti-DNP antibody, as described above in the “Cell-Based ELISAs” section. These opsonized bacteria were then used to infect BMDMs at a multiplicity of infection of 50 for 0.5 h at 37° C. Bacteria were then washed by using RPMI 1640 Media and BMDMs were left in cell culture medium containing gentamicin (100 μg/ml). After 1 h and 24 h BMDMs were washed to remove gentamicin and intracellular bacteria were harvested by lysing BMDMs in RPMI media containing 0.2% Triton X 100. Bacterial CFUs were enumerated by plating onto LB agar. Bacterial counts at 1 h indicated the degree of opsonization while those at 24 h served as a measure of microbicidal activity of macrophages. For these measurements, anti-MrkA antibody and K. pneumoniae antiserum were used at dilutions of 5 μg/mL each.

Assay [2] concerns the target T1, full-length recombinant MrkA protein (Klebsiella pneumoniae, UniProt P12267).
T1 construct: purchased MyBiosource MBS1248970
As to the kind of experiment: Sandwich ELISA of PCC binding to full-length MrkA. The following applies: for binding / affinity to full-length MrkA protein (ELISA signal): compared with cy(LLFFF); for affinities to MrkA (likely): ELISA, full-length recombinant MrkA. The method, then:
The screen yielded 26 hits (Table 2) that were sequenced, scaled up, and tested for binding to full-length recombinant MrkA in solution by single-point sandwich Enzyme-linked immunoassays (ELISAs) (FIG. 8). HPraGly is present before X1 in each peptide and Az4 follows X5 in each peptide.
An alanine scan was performed to establish which residues of cy(LLFFF) (SEQ ID NO:5) contribute most to MrkA binding. In this assay, a sandwich ELISA is used to quantify the affinity of several cy(LLFFF) (SEQ ID NO:5) analogues, in which one residue is substituted with an alanine, towards full-length MrkA protein. The ELISA results in FIG. 4 show lower signal for every alanine-substituted cy(LLFFF) (SEQ ID NO:5) analogue compared to unmodified cy(LLFFF) (SEQ ID NO:5), establishing that the native compound has the highest affinity. […] Thus, these two C-terminal phenylalanine residues (FIG. 3A, arrows in inset) play critical roles in MrkA binding, and are targets for modifications to improve binding. Another important detail of these alanine scan results is a strong dependence of MrkA binding on the residue position, independent of residue type. For example, cy(LLAFF) (SEQ ID NO:9) and cy(LLFFA) (SEQ ID NO:11) have very different binding affinities, despite having the same phenylalanine-to-alanine substitution.
In vitro ELISA assays. ELISA assays for MrkA-binding and epitope selectivity were performed on clear NeutrAvidin Coated High Capacity Plates (ThermoFisher, 15507). The buffer used for all washes and to dissolve all compounds was TBST+0.1% BSA (TBS+0.05% Tween 20+0.1% BSA, pH 7.3) and, unless otherwise stated, steps were conducted at room temperature. Each wash involved a brief 20 s agitation, and all conjugation, blocking, and incubation steps were performed with gentle agitation over the entire stated time period. The general procedure for an ELISA assay was: wash 3×200 μL/well, conjugate with 2 μM of biotinylated compound for 2 h at room temperature (100 μL/well), wash 3×200 μL/well, blocked overnight in 5 wt % milk at 4° C., wash […] with wash buffer, incubate with titrated compound (e.g., MrkA or epitope) for 1 h, […], incubate with primary antibody […] for 1 h (100 μL/well), wash 3×200 μL/well, incubate with 1:2,000 anti-rabbit secondary antibody-horseradish peroxidase conjugate (Cell signaling Technologies, 7074S) for 1 h, 3×200 μL/well, develop with the Microwell Peroxidase Substrate System (2-C) (SeraCare, 5120-0047) using 100 μL/well for 1-40 minutes, and quench using 1 M H2SO4 (aq.) at 100 μL/well. For MrkA binding assays, biotinylated PCCs were conjugated to the well surface, recombinant MrkA with an N-terminal 6×His-SUMO-tag (MyBiosource, MBS1248970) was titrated at the desired concentration, and the primary antibody was His-tag antibody, pAb, Rabbit (Genscript, A00174) at a 1:5,000 dilution. For epitope selectivity assays, biotinylated SynEps were conjugated, DNP-conjugated AR-PCCs were titrated at a desired concentration, and the primary antibody was anti-DNP antibody produced in Rabbit (Sigma-Aldrich, D9656) at a 1:8,000 dilution. […] For binding tests in the context of mouse sera, the “titrated compound” described in the steps above was dispersed in a solution containing the desired concentration of mouse serum.
Background: ELISA stands for enzyme-linked immunosorbent assay.

Assay [3] relates to MrkA-expressing K. pneumoniae cells. As to the kind of experiment: Whole-cell ELISA of biotinylated PCC binding.
Setting [4] is: strain BAA 1705, PCC 5 μM or lower.

“Also recorded” adds a separate entry of the source. Bridges are numbered along the chain shown (N, C = ends). Where no end group is shown, it is not given here. [ ]: non-standard residue; d: D form. Lys(N3) = [N-]=[N+]=NCCCC[C@H](N)C(=O)O; Pra = C#CC[C@H](N)C(=O)O

T1 sequence (P12267 23-202): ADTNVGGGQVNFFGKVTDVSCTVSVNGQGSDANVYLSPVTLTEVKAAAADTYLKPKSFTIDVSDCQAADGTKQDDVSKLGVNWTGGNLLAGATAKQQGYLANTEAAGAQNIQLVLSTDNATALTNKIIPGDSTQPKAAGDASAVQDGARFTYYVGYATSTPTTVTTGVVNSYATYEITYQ

With “cy(LLFFA)-DNP: DNP-conjugated control cy(LLFFA) ([Lys(N3)]LLFFAX; triazole 1-7; not fully specified (residue 7); printed as cy(LLFFA); also: DNP label)”, in assay [1], the “phagocytosis / OPK activity at 1 h, AR-PCC plus anti-DNP” value is given as “None of these treatments elicited phagocytosis above basal levels” and the “phagocytosis at 1 h, AR-PCC only (no anti-DNP)” value is “None of these treatments elicited phagocytosis above basal levels”.
For “cy(LLAFF): alanine-substituted cy(LLFFF) analogue ([Lys(N3)]LLAFFX; triazole 1-7; not fully specified (residue 7); printed as cy(LLAFF))”, the “binding / affinity to full-length MrkA protein (ELISA signal)” value (shortened to “binding / affinity”) in assay [2] is “Modestly lower binding”.
For the substance “cy(LLFFA): control compound differing from cy(LLFFF) by a single phenyl moiety ([Lys(N3)]LLFFA[Pra]; triazole 1-7)”, the “whole-cell ELISA signal, MrkA-knockout KPPR1” value in assay [3] (MrkA/B/C knockout KPPR1) is listed as “ELISA intensities comparable to baseline”. For the same substance, the “whole-cell ELISA signal at high PCC concentration, LB or G-CAA” value in assay [3] (strain BAA 1705, 50 μM PCC) is “strong and comparable ELISA signals”. In addition, in assay [3] (setting [4]), the “whole-cell ELISA 450 nm absorbance, cells cultured in G-CAA (high MrkA)” value is recorded as “near-baseline absorbances” and the “whole-cell ELISA 450 nm absorbance, cells cultured in LB (low MrkA)” value is listed as “near-baseline absorbances”. Also, the “whole-cell ELISA signal, wild type KPPR1” value in assay [3] (wild type KPPR1 (ATCC 43816), G-CAA media, 5 μM down to 5 nM) is “much lower intensities; also recorded: Much lower binding”.
With “cy(ALFFF): alanine-substituted cy(LLFFF) analogue ([Lys(N3)]ALFFFX; triazole 1-7; not fully specified (residue 7); printed as cy(ALFFF))”, the “binding / affinity” value in assay [2] is given as “Modestly lower binding”.
For “cy(YRHLG): additional MrkA ligand with lower affinity (XYRHLG[Lys(N3)]; bridge 1-7; not fully specified (residue 1, bridges); printed as cy(YRHLG))”, in assay [2], the “affinities to MrkA (likely)” value is about 1 µM and the “binding / affinity” value is on record as “lower affinities to MrkA”.
As for “cy(LAFFF): alanine-substituted cy(LLFFF) analogue ([Lys(N3)]LAFFFX; triazole 1-7; not fully specified (residue 7); printed as cy(LAFFF))”, the “binding / affinity” value in assay [2] is reported as “Modestly lower binding”.
Take “cy(LLFFF)+R6-DNP: optimized compound cy(LLFFF)+R6 tagged with DNP ([Lys(N3)]LLFFF[Pra]RRRRRR; bridge 1-7; not fully specified (bridges); also: tagged with DNP, position not given here)”: in assay [1], the “phagocytosis / OPK activity at 1 h, AR-PCC plus anti-DNP” value is given as “comparable to that of cy(LLFFF)-DNP” and the “phagocytosis at 1 h, AR-PCC only (no anti-DNP)” value is listed as “None of these treatments elicited phagocytosis above basal levels”. In assay [1] (murine BMDMs), the “colony counts at 1 h, AR-PCC plus anti-DNP antibody” value was 85,000 CFU.
On to “cy(GVHRL): additional MrkA ligand with lower affinity (XGVHRL[Lys(N3)]; triazole 1-7; not fully specified (residue 1); printed as cy(GVHRL))”, for which, in assay [2], the “affinities to MrkA (likely)” value is about 1 µM and the “binding / affinity” value is “lower affinities to MrkA”.
Take “cy(TTFFF): additional MrkA ligand with lower affinity ([Lys(N3)]TTFFFX; bridge 1-7; not fully specified (residue 7, bridges); printed as cy(TTFFF))”: in assay [2], the “affinities to MrkA (likely)” value was about 1 µM and the “binding / affinity” value is listed as “lower affinities to MrkA”.
